Data set [1] relates to Leukotriene C4 (LTC4) production in mouse bone marrow-derived mast cells (BMMCs). As to the kind of experiment: Inhibition of LTC4 production/release by IgE/DNP-HSA-stimulated BMMCs (ELISA). It is filed as cell-based. The settings on record: 10 μM. The protocol: (§1) (1) Experimental Animal: a 6-week-old female Balb/C mouse without specific pathogens.
(§2) (2) Extraction Process: the mouse was sacrificed by cervical dislocation. After confirming the death of the mouse, it was immersed in alcohol for 3-5 minutes. The back skin of the mouse was cut with tweezers and scissors on a clean bench. The spleen was removed and placed in a filter. The filter was placed in a petri dish containing serum-free medium. The spleen was grounded into a cell suspension having a cell concentration of 2×10^6 cells/mL. […] of lectins was added, and cell suspension was then cultured in RPMI1640 medium for 5 days. The supernatant was collected. The femur bone of the mouse was removed, and joints of the bone was cut. The bone marrow was washed into a centrifuging tube by using serum-free medium. The bone marrow containing medium was then centrifuged, and the supernatant was discarded and the pellet was red bone marrow.
(§3) (3) Cell Culture: The cells were cultured for 4 weeks with RPMI1640, 10% Gibco FBS, 20% spleen supernatant, 1% AEPS, 1% MEM, and 1% double antibody.
Principle: This experiment is based on the competitive binding of LTC4 to the LTC4-acetylcholinesterase conjugate (LTC4 tracer) to determine the amount of […]. Because the concentration of the LTC4 tracer is constant and the concentration of LTC4 is varied, the amount of LTC4 tracer bound to the LTC4 antiserum is inversely proportional to the amount of LTC4. The antibody-LTC4 complex binds to the murine monoclonal anti-rabbit IgG, while the murine monoclonal anti-rabbit IgG has previously been conjugated to the kit. After the reaction system was stabilized, the unbound reagent was washed away. Ellman's reagent (a […]) was added. […] The color depth was measured by the spectrophotometric method, and is proportional to the amount of LTC4 tracer, which is inversely proportional to the amount of LTC4.
(a) Sample Preparation: culturing mature BMMCs, adding IgE overnight, washing with PBS three times, and then spreading in 96-well plates (1×10^6 cells/well). The test compound solutions were added to plates and the plates were incubated for 1-1.5 hours, stimulating with DNP-HSA for 15 min. The solutions were then centrifuged at 3000 rpm for 3 min at 4° C., and the supernatant was collected and diluted 5-fold with RPMI 1640 to obtain sample solution.
(b) ELISA Kit Reaction: Adding reagents according to the kit instructions, reacting at 4° C. for 18 h, and washing with washing buffer. 200 μL of Ellman's reagent was added to each well, reacting for 40 min.
(c) Measurement of Absorbance: The absorbance was measured at 405 nm.
For orientation: In an ELISA, binding on a coated surface is turned into a signal by an enzyme label.

The subject of the next data set is BMMCs. As to the kind of experiment: MTT assay, inhibition of the growth of BMMCs (cell toxicity). It is filed as cell-based. As to conditions: 10 μM. The protocol:
as §1, §2, §3
(1) Preparation of MTT Solution: 5 mg/mL MTT solution was prepared by weighing an amount of MTT ((2-(4,5-dimethyl-2-thiazolyl)-3,5-diphenyl-2H-[…]) and dissolving MMT in PBS (solvent), and the solution was then filtered using a 0.22 μm microporous membrane. The solution was light yellow and stored at −20° C.
(2) Method: BMMCs were seeded in 96-well plates at a density of 2×10^5/mL at 100 μL per well, and the compounds of different concentrations were added. 100 μL culture medium and 100 μL PBS were used as blank control. After 7 hours, 20 μL MMT (5 mg/mL) was added to each well. The plates were then placed in an incubator (5% CO2, 37° C.) for 4 hours. After the reaction was complete, the supernatant was discarded, and 150 μL of DMSO was added to each well. After mixing, the absorbance (OD value) was measured at 490 nm using a microplate reader. Cell Viability=(ODcompounds−ODculture medium)/(ODPBS−ODculture medium)×100%
On the technique in general: Formazan colour is commonly taken as a measure of viable cells.

Regarding `COc1ccc(C2=NOC3(C2)C(=O)OC2CC(C)=C(C(C)CCCOC(C)=O)C(O)C23)cc1` (centres unmarked) [Compound 2g], the “Inhabitation Rate (%)” value in data set [1] worked out at 0.91%. For the same molecule, the “Cell Toxicity (%)” value in the data set on BMMCs was 7.37%.

As for `CC(=O)OCCCC(C)C1=C(C)CC2OC(=O)C3(CC(c4ccccc4)=NO3)C2C1=O` (centres unmarked) [Compound 4a], the “Inhabitation Rate (%)” value in data set [1] was found to be 21.93%. In the data set with BMMCs, the “Cell Toxicity (%)” value amounted to 0.16%.

Regarding `CC(=O)OCCCC(C)C1=C(C)CC2OC(=O)C3(CC(c4ccc(C)cc4)=NO3)C2C1=O` (centres unmarked) [Compound 4f], in data set [1], the “Inhabitation Rate (%)” value turned out to be 28.77%. For the same molecule, in the data set on BMMCs, the “Cell Toxicity (%)” value is recorded as −0.66%.

For the molecule `CC(=O)OCCCC(C)C1=C(C)CC2OC(=O)C3(CC(c4ccncc4)=NO3)C2C1O` (centres unmarked) [Compound 2i], in data set [1], the “Inhabitation Rate (%)” value worked out at 84.84%. The “Cell Toxicity (%)” value in the data set with BMMCs was found to be 4.26%.

Consider `CC(=O)OCCCC(C)C1=C(C)CC2OC(=O)C3(CC(c4ccccc4)=NO3)C2C1O` (centres unmarked) [Compound 2a], for which, in data set [1], the “Inhabitation Rate (%)” value was found to be 69.36%. For the same molecule, the “Cell Toxicity (%)” value in the data set on BMMCs came out at 5.98%.

As for `C=C1C(=O)O[C@@H]2CC(C)=C([C@@H](C)CCCOC(C)=O)[C@H](O)[C@H]12` [ABL, 1-O-acetylbritannilatone], the “Inhabitation Rate (%)” value in data set [1] turned out to be 35.21%. Moreover, the “Cell Toxicity (%)” value in the data set on BMMCs is listed as 1.15%.

In the case of `CC(=O)OCCCC(C)C1=C(C)CC2OC(=O)C3(CC(c4ccc(C#N)cc4)=NO3)C2C1O` (centres unmarked) [Compound 2e], the “Inhabitation Rate (%)” value in data set [1] came to 85.49%. For the same molecule, the “Cell Toxicity (%)” value with BMMCs was −0.66%.

On to `C=C1C(=O)OC2CC(C)=C(C(C)CCCOC(C)=O)C(OC(C)=O)C12` (centres unmarked) [OABL, 1,6-O,O-diacetylbritannilatone, reference compound], for which the “Inhabitation Rate (%)” value in data set [1] is recorded as 53.24%. For the same molecule, the “Cell Toxicity (%)” value in the data set with BMMCs turned out to be 3.46%.

Consider `CC(=O)OCCCC(C)C1=C(C)CC2OC(=O)C3(CC(c4ccc(Cl)cc4)=NO3)C2C1=O` (centres unmarked) [Compound 4c], for which, in data set [1], the “Inhabitation Rate (%)” value came out at 84.4%. Moreover, the “Cell Toxicity (%)” value in the data set with BMMCs is listed as 2.95%.

On to `CC(=O)OCCCC(C)C1=C(C)CC2OC(=O)C3(CC(c4ccc(C#N)cc4)=NO3)C2C1=O` (centres unmarked) [Compound 4e], for which, in data set [1], the “Inhabitation Rate (%)” value is 88.22%. The “Cell Toxicity (%)” value in the data set with BMMCs is given as 3.19%.

Take `CC(=O)OCCCC(C)C1=C(C)CC2OC(=O)C3(CC(c4ccc(F)cc4)=NO3)C2C1O` (centres unmarked) [Compound 2b]: the “Inhabitation Rate (%)” value in data set [1] was determined as 77.46%. Moreover, the “Cell Toxicity (%)” value in the data set on BMMCs turned out to be 1.47%.

As for `CC(=O)OCCCC(C)C1=C(C)CC2OC(=O)C3(CC(c4ccc(Br)cc4)=NO3)C2C1OC(C)=O` (centres unmarked) [Compound 3d], in data set [1], the “Inhabitation Rate (%)” value was 89.94%. The “Cell Toxicity (%)” value in the data set with BMMCs is listed as 9.58%.

`CC(=O)OCCCC(C)C1=C(C)CC2OC(=O)C3(CC(c4ccc(O)cc4)=NO3)C2C1OC(C)=O` (centres unmarked) [Compound 3j]: the “Inhabitation Rate (%)” value in data set [1] was 88.7%. In addition, the “Cell Toxicity (%)” value in the data set on BMMCs is 21.95%.

For `CC(=O)OCCCC(C)C1=C(C)CC2OC(=O)C3(CC(c4ccc(C)cc4)=NO3)C2C1O` (centres unmarked) [Compound 2f], the “Inhabitation Rate (%)” value in data set [1] is −32.88%. In addition, in the data set with BMMCs, the “Cell Toxicity (%)” value is −1.06%.

In the case of `CC(=O)OCCCC(C)C1=C(C)CC2OC(=O)C3(CC(c4ccc(Cl)cc4)=NO3)C2C1OC(C)=O` (centres unmarked) [Compound 3c], the “Inhabitation Rate (%)” value in data set [1] is 70.16%. Also, in the data set with BMMCs, the “Cell Toxicity (%)” value was −6.22%.

Turning to `CC(=O)OCCCC(C)C1=C(C)CC2OC(=O)C3(CC(c4ccc(C#N)cc4)=NO3)C2C1OC(C)=O` (centres unmarked) [Compound 3e], the “Inhabitation Rate (%)” value in data set [1] was 93.95%. The “Cell Toxicity (%)” value in the data set on BMMCs is given as 0.25%.

As for `CC(=O)OCCCC(C)C1=C(C)CC2OC(=O)C3(CC(c4ccc(F)cc4)=NO3)C2C1OC(C)=O` (centres unmarked) [Compound 3b], the “Inhabitation Rate (%)” value in data set [1] worked out at 89.01%. In addition, the “Cell Toxicity (%)” value in the data set with BMMCs was −1.97%.

As for `COc1ccc(C2=NOC3(C2)C(=O)OC2CC(C)=C(C(C)CCCOC(C)=O)C(=O)C23)cc1` (centres unmarked) [Compound 4g], the “Inhabitation Rate (%)” value in data set [1] came to 53.28%. For the same molecule, the “Cell Toxicity (%)” value in the data set with BMMCs was determined as 5.81%.

In the case of `CC(=O)OCCCC(C)C1=C(C)CC2OC(=O)C3(CC(c4ccncc4)=NO3)C2C1=O` (centres unmarked) [Compound 4i], in data set [1], the “Inhabitation Rate (%)” value was 83.53%. Further, the “Cell Toxicity (%)” value in the data set on BMMCs amounted to 9.09%.

As for `CC(=O)OCCCC(C)C1=C(C)CC2OC(=O)C3(CC(c4ccncc4)=NO3)C2C1OC(C)=O` (centres unmarked) [Compound 3i], the “Inhabitation Rate (%)” value in data set [1] is 88.7%. Further, the “Cell Toxicity (%)” value with BMMCs is recorded as 9.58%.

On to `CC(=O)OCCCC(C)C1=C(C)CC2OC(=O)C3(CC(c4ccccc4)=NO3)C2C1OC(C)=O` (centres unmarked) [Compound 3a], for which, in data set [1], the “Inhabitation Rate (%)” value came to 79.15%. Moreover, in the data set on BMMCs, the “Cell Toxicity (%)” value is 5.98%.

Regarding `CC(=O)OCCCC(C)C1=C(C)CC2OC(=O)C3(CC(c4ccc(Cl)cc4)=NO3)C2C1O` (centres unmarked) [Compound 2c], the “Inhabitation Rate (%)” value in data set [1] is recorded as 67.43%. For the same molecule, the “Cell Toxicity (%)” value in the data set with BMMCs turned out to be 1.88%.

As for `CC(=O)OCCCC(C)C1=C(C)CC2OC(=O)C3(CC(c4ccc(C)cc4)=NO3)C2C1OC(C)=O` (centres unmarked) [Compound 3f], in data set [1], the “Inhabitation Rate (%)” value is given as −23.48%. Also, in the data set with BMMCs, the “Cell Toxicity (%)” value was determined as 4.1%.

Consider `CC(=O)OCCCC(C)C1=C(C)CC2OC(=O)C3(CC(c4ccc(O)cc4)=NO3)C2C1O` (centres unmarked) [Compound 2j], for which the “Inhabitation Rate (%)” value in data set [1] is listed as 74.36%. In the data set with BMMCs, the “Cell Toxicity (%)” value is reported as −0.9%.

Turning to `CC(=O)OCCCC(C)C1=C(C)CC2OC(=O)C3(CC(c4ccc(Br)cc4)=NO3)C2C1O` (centres unmarked) [Compound 2d], the “Inhabitation Rate (%)” value in data set [1] came out at 50.4%. Also, the “Cell Toxicity (%)” value in the data set on BMMCs was found to be 1.06%.

In the case of `CC(=O)OCCCC(C)C1=C(C)CC2OC(=O)C3(CC(c4ccc([N+](=O)[O-])cc4)=NO3)C2C1O` (centres unmarked) [Compound 2h], the “Inhabitation Rate (%)” value in data set [1] came out at 87.14%. For the same molecule, the “Cell Toxicity (%)” value with BMMCs was determined as 20.64%.

As to `CC(=O)OCCCC(C)C1=C(C)CC2OC(=O)C3(CC(c4ccc([N+](=O)[O-])cc4)=NO3)C2C1OC(C)=O` (centres unmarked) [Compound 3h], the “Inhabitation Rate (%)” value in data set [1] was 84.4%. Also, in the data set on BMMCs, the “Cell Toxicity (%)” value turned out to be 6.63%.

On to `COc1ccc(C2=NOC3(C2)C(=O)OC2CC(C)=C(C(C)CCCOC(C)=O)C(OC(C)=O)C23)cc1` (centres unmarked) [Compound 3g], for which, in data set [1], the “Inhabitation Rate (%)” value was found to be 93.19%. For the same molecule, the “Cell Toxicity (%)” value in the data set on BMMCs was determined as 11.12%.

In the case of `CC(=O)OCCCC(C)C1=C(C)CC2OC(=O)C3(CC(c4ccc([N+](=O)[O-])cc4)=NO3)C2C1=O` (centres unmarked) [Compound 4h], the “Inhabitation Rate (%)” value in data set [1] was 92.79%. For the same molecule, the “Cell Toxicity (%)” value in the data set with BMMCs is 5.65%.

Take `CC(=O)OCCCC(C)C1=C(C)CC2OC(=O)C3(CC(c4ccc(Br)cc4)=NO3)C2C1=O` (centres unmarked) [Compound 4d]: in data set [1], the “Inhabitation Rate (%)” value is on record as 97.77%. For the same molecule, the “Cell Toxicity (%)” value with BMMCs was −4.59%.

Regarding `CC(=O)OCCCC(C)C1=C(C)CC2OC(=O)C3(CC(c4ccc(F)cc4)=NO3)C2C1=O` (centres unmarked) [Compound 4b], in data set [1], the “Inhabitation Rate (%)” value is on record as 32%. In addition, in the data set on BMMCs, the “Cell Toxicity (%)” value was −8.44%.

The values above are taken from patent US11028102B2, “Methods of using 1-O-acetylbritannilatone spiro aryl isoxazoline compounds” (priority 2017, dated 2021).
